Source: ChEMBL document CHEMBL3763136, “Synthesis and neuroprotective activity of dictyoquinazol A and analogues” (Bioorg Med Chem, 2016)
Activity calls are given as the source filed them. The calls are words filed in the database; no cut-off is given here.

Legend:
SH-SY5Y [1] = test: Neuroprotective activity against H2O2-induced oxidative stress in human SH-SY5Y cells assessed as increase in cell viability after 20 hrs by MTT assay; format: functional, cell-based
SH-SY5Y [2] = test: Neuroprotective activity against L-glutamate-induced excitotoxicity in human SH-SY5Y cells assessed as increase in cell viability after 20 hrs by MTT assay; format: functional, cell-based
SH-SY5Y [3] = test: Neuroprotective activity against staurosporine-induced apoptosis in human SH-SY5Y cells assessed as increase in cell viability after 20 hrs by MTT assay; format: functional, cell-based
SH-SY5Y [4] = test: Cytotoxicity against human SH-SY5Y cells assessed as cell viability at 0.3 to 3 uM after 24 hrs by MTT assay; format: cell-based
SH-SY5Y [5] = test: Neuroprotective activity against staurosporine-induced apoptosis in human SH-SY5Y cells assessed as increase in cell viability at 0.3 uM after 20 hrs by MTT assay; format: functional
SH-SY5Y [6] = test: Neuroprotective activity against L-glutamate-induced excitotoxicity in human SH-SY5Y cells assessed as increase in cell viability at 0.3 uM after 20 hrs by MTT assay; format: functional
SH-SY5Y [7] = test: Cytotoxicity against human SH-SY5Y cells assessed as cell viability above 10 uM after 24 hrs by MTT assay; format: cell-based
SH-SY5Y [8] = test: Cytotoxicity against human SH-SY5Y cells assessed as cell viability up to 3 uM after 24 hrs by MTT assay; format: cell-based
SH-SY5Y [9] = test: Neuroprotective activity against H2O2-induced oxidative stress in human SH-SY5Y cells assessed as increase in cell viability at 0.6 to 1.2 uM after 20 hrs by MTT assay; format: functional
SH-SY5Y [10] = test: Neuroprotective activity against L-glutamate-induced excitotoxicity in human SH-SY5Y cells assessed as increase in cell viability at 0.6 uM after 20 hrs by MTT assay; format: functional

| Compound | Activity (SH-SY5Y [1]) | Activity (SH-SY5Y [2]) | Activity (SH-SY5Y [3]) | Activity (SH-SY5Y [4]) | Activity (SH-SY5Y [5]) | %max (SH-SY5Y [6]) | Activity (SH-SY5Y [7]) | Activity (SH-SY5Y [8]) | %max (SH-SY5Y [9]) | Activity (SH-SY5Y [10]) |
| --- | --- | --- | --- | --- | --- | --- | --- | --- | --- | --- |
| COc1ccc(-n2c(=S)[nH]c3ccc(OC)cc3c2=O)c(CO)c1 | Active | Active | inactive | Non-toxic | – | – | – | – | – | – |
| COC(=O)c1cc(OC)ccc1-n1cnc2ccc(OC)cc2c1=O | Active | Active | Active | Non-toxic | – | – | – | – | – | – |
| COc1ccc(-n2cnc3ccc(OC)cc3c2=O)c(CO)c1 [DICTYOQUINAZOLE A] | – | – | – | – | 41% | 10% | Toxic | Non-toxic | 22% | – |
| COc1ccc(-n2c(=O)[nH]c3ccc(OC)cc3c2=O)c(CO)c1 | Active | Active | Active | Non-toxic | – | – | – | – | – | – |
| COc1ccc(-n2cnc3ccc(OC)cc3c2=O)c(CF)c1 | inactive | Active | Active | – | – | – | Toxic | Non-toxic | – | – |
| O=c1c2ccccc2ncn1-c1ccccc1CO | inactive | – | Active | – | – | – | Toxic | Non-toxic | – | 35% |
| COc1ccc(-n2cnc3ccc(OC)cc3c2=O)cc1 | Active | Active | Active | Non-toxic | – | – | – | – | – | – |
| COc1ccc(-n2cnc3ccc(OC)cc3c2=O)c(COC=O)c1 | – | – | – | – | – | – | Toxic | Non-toxic | – | – |
